The target in experiment [1] is T1, MAPKAPK5 (Homo sapiens, UniProt Q8IW41).
T1 construct: 1 mU MAPKAP-K5
T1 sequence (Q8IW41 1-473): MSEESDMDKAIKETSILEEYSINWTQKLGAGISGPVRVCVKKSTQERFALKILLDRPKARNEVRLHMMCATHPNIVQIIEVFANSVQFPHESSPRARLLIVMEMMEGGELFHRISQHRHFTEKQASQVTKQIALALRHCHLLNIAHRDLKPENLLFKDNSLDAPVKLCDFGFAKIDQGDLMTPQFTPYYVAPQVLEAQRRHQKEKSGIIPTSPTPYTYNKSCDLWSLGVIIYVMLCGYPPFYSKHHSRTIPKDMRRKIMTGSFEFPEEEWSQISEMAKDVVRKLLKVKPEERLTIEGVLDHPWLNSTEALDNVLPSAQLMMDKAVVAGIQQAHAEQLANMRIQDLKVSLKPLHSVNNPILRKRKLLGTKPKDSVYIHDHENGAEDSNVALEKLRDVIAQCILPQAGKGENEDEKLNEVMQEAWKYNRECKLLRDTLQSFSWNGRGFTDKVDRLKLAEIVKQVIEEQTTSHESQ
The experiment in a line: MAPKAP-K5 assay (FlashPlate, 33P-ATP). It counts as biochemical. Particulars: 0.6 μM ATP, 30 minutes at room temperature. The protocol: 3 μM MAPKAP-K5 peptide substrate

Experiment [2] relates to TNFα release by human PBMCs. The experiment in a line: Cytokine release by LPS-stimulated human PBMCs (TNFα ELISA). It counts as cell-based. The following applies: LPS 1 μg/mL, 24 hr. As for the experimental part: Human peripheral blood mononuclear cells (PBMCs) are isolated from “buffy coats” prepared from the blood of healthy volunteers, isolated essentially according to method of Bøyum (1984). In brief, buffy coat is diluted 1:1 with 1×PBS (Gibco) and 30 mL is carefully put on top of 20 mL Lymphoprep™ (Lucron Bioproducts) in 50 mL Falcon tubes. After centrifugation (35 min, 400 g, 18° C.) the mononuclear cells are collected from the white interphase and washed 3 times with 1×PBS by resuspending and centrifugation (10 min, 200 g). Isolated PBMCs are finally resuspended in RPMI 1640 (Cat. No. 21875, Gibco) that is supplemented with 10% heat-inactivated FBS (Hyclone).
For the assay PBMCs are seeded at 2.5E6 cells/mL in 160 μL in 96-well plates (Nunc). Serial dilution of the test compounds are made first in DMSO (Sigma) and then diluted 50-fold in M199 medium (Gibco) containing 1% heat-inactivated FBS. Compounds are further 1/10 diluted in the assay plates to obtain final DMSO concentration of 0.2%. Cells are preincubated with the compounds for 1 hr at 37° C., 5% CO2. Then, cells are stimulated with LPS (Escherichia coli serotype 026:B6, Cat. No. L2654, Sigma) that is added in a volume of 20 μL to a final concentration of 1 μg/mL and cells are further cultured for 24 hr. The plates are centrifuged and the supernatant is collected and stored at −80° C. until analysis of appropriate dilutions in ELISAs.
The following 384-well chemiluminescent ELISA protocol was developed to measure TNFα levels in the supernatant: White Lumitrac 600 384-well plates (Greiner) are coated with (40 μL/well) anti-TNFα capture antibody (Cat. No. 551220, BD Pharmingen) that is diluted to 1 μg/mL in 1×PBS (Gibco). After overnight incubation at 4° C., plates are washed with 1×PBS (80 g NaCl, 2 g KCl (Sigma), 11.5 g Na2HPO4.7H2O and 2 g KH2PO4 in 10 L milliQ; pH 7.4) and blocked with 100 μL/well buffer B (1×PBS containing 1% BSA (Sigma), 5% sucrose (Sigma) and 0.05% NaN3 (Sigma)). After 4 hr incubation at RT, blocking buffer is removed and plates are washed once with PBST (1×PBS with 0.05% Tween-20 (Sigma)). Then, 40 μL of sample is transferred to the ELISA plates and plates are incubated at 4° C. Next day, plates are washed 3 times (twice with PBST and once with PBS) and 35 μL/well biotinylated anti-TNFα antibody (Cat. No. 554511, BD Pharmingen) diluted first to a concentration of 250 ng/ml in buffer D (1×PBS with 1% BSA) is added. After 2 h of incubation at RT, plates are washed as described above and 35 μL/well of a 1/2000 dilution of streptavidin-HRP conjugate (Cat. No. SNN2004, Biosource) in buffer D is added. After 45 min, plates are washed as described above and incubated for 5 min with 50 μL/well BM Chemiluminescence ELISA Substrate POD (Roche). Readout is performed on the Luminoscan Ascent Luminometer (Labsystems) with an integration time of 100 msec delivering raw data (RLU: relative luminescence units). The following controls are included in the experiments, a maximal signal control, in which the cells are activated by LPS but only the 0.2% DMSO vehicle (and thus no compound) is added. This control indicates the maximal level of TNFα that can be achieved in the test. A minimal signal control is also included in these experiments. Here, cells are not triggered. This control returns the basal TNFα levels produced by the PBMCs. The percent inhibition (PIN) of the TNFα release, achieved by the compounds is then calculated based on the RLU data returned by the ELISA with following formula: 100−[((TNFα level compound X at concentration Y−minimal TNFα levels)/(maximal TNFα levels−minimal TNFα levels))×100]. Where compounds are tested at 8 concentrations (1/3 serial dilution), EC50-values can be calculated by curve fitting of the means of the PIN data achieved for a compound at each test concentration. […]

Read-outs that look alike come from different tables or passages of the source.

In experiment [1], `CN(C)Cc1cn(-c2ccc(Nc3ncc(-c4ccc(C(N)=O)cc4)n4ccnc34)cc2)nn1` [Compound 166, 4-{8-[4-(4-Dimethylaminomethyl-[1,2,3]triazol-1-yl)-phenylamino]-imidazo[1,2-a]pyrazin-5-yl}-benzamide] yielded an IC50 of over 1000 nM. The compound also gave an EC50 in experiment [2] (PBMC) of over 1000 nM.
Compound `NC(=O)c1ccc(-c2cnc(Nc3ccc(-c4cccnc4)cc3)c3nccn23)cc1` [Compound 153] registered an IC50 in experiment [1] of over 1000 nM. In addition, in experiment [2] (PBMC), the EC50 lay within 1 to 100 nM.
The like results for `CS(=O)(=O)c1ccc(Nc2ncc(-c3cn[nH]c3)n3ccnc23)cc1` [Compound 71] were, in that order, 101 to 500 nM and over 1000 nM.
The like results for `CN1CCN(c2ccc(Nc3ncc(-c4ccc(C(N)=O)cc4)n4ccnc34)cc2Cl)CC1` [Compound 136, 4-{8-[3-Chloro-4-(4-methyl-piperazin-1-yl)-phenylamino]-imidazo[1,2-a]pyrazin-5-yl}-benzamide] were, in that order, 101 to 500 nM and 101 to 500 nM.
As to `O=C(Nc1ccccc1)c1ccc(Nc2ncc(-c3cn[nH]c3)n3ccnc23)cc1` [Compound 41], the IC50 in experiment [1] was over 1000 nM. In experiment [2] (PBMC), this compound displayed an EC50 of over 1000 nM.
In turn, `c1cn(-c2ccc(Nc3ncc(-c4cn[nH]c4)n4ccnc34)cc2)cn1` [Compound 168, (4-Imidazol-1-yl-phenyl)-[5-(1H-pyrazol-4-yl)-imidazo[1,2-a]pyrazin-8-yl]-amine] yielded an IC50 in experiment [1] of over 1000 nM. Further, the 50% effective concentration (EC50) in experiment [2] (PBMC) was over 1000 nM.
Turning to `NC(=O)c1c(F)cc(-c2cnc(Nc3ccc(N4CCOCC4)cc3)c3nccn23)cc1F` [Compound 165], the IC50 in experiment [1] is over 1000 nM. In addition, the EC50 in experiment [2] (PBMC) was over 1000 nM.
In the case of `Cc1[nH]ncc1-c1cnc(Nc2ccc(N3CCN(C)CC3)cc2)c2nccn12` [Compound 119, (4-(4-Methylpiperazin-1-yl)phenyl)-[5-(5-methyl-1H-pyrazol-4-yl)imidazo[1,2-a]pyrazin-8-yl]amine], in experiment [1], the IC50 lay within 101 to 500 nM. The same compound yielded an EC50 in experiment [2] (PBMC) of over 1000 nM.
The matching figures for `CC(C)N1CCN(c2ccc(Nc3ncc(-c4coc(C(N)=O)c4)n4ccnc34)cc2)CC1` [Compound 204, 4-{8-[4-(4-Isopropyl-piperazin-1-yl)-phenylamino]-imidazo[1,2-a]pyrazin-5-yl}-furan-2-carboxylic acid amide]: 101 to 500 nM and over 1000 nM.
Consider `CN1CCN(c2ccc(Nc3ncc(-c4cc(C(N)=O)co4)n4ccnc34)cc2)CC1` [Compound 151], for which, in experiment [1], the IC50 was in the range of 1 to 100 nM. In experiment [2] (PBMC), this compound came in with an EC50 of over 1000 nM.
The like results for `CC(C)N1CCN(c2ccc(Nc3ncc(-c4cc(F)c(C(N)=O)c(F)c4)n4ccnc34)cc2)CC1` [Compound 193] were, in that order, 501 to 1000 nM and over 1000 nM.
The like results for `CN1CCC(COc2ccc(Nc3ncc(-c4ccc(C(N)=O)c(F)c4)n4ccnc34)cc2)CC1` [Compound 159, 2-Fluoro-4-{8-[4-(1-methyl-piperidin-4-ylmethoxy)-phenylamino]-imidazo[1,2-a]pyrazin-5-yl}-benzamide] were, in that order, over 1000 nM and over 1000 nM.
The matching figures for `NC(=O)c1ncc(-c2cnc(Nc3ccc(N4CCOCC4)cc3)c3nccn23)s1` [Compound 173, 5-[8-(4-Morpholin-4-yl-phenylamino)-imidazo[1,2-a]pyrazin-5-yl]-thiazole-2-carboxylic acid amide]: over 1000 nM and over 1000 nM.
`CN1CCN(c2ccc(Nc3ncc(-c4cc(F)c(C(N)=O)c(F)c4)n4ccnc34)cc2)CC1` [Compound 140] returned an IC50 in experiment [1] of 101 to 500 nM. In addition, the EC50 in experiment [2] (PBMC) was over 1000 nM.
The matching figures for `CN1CCN(c2ccc(Nc3ncc(-c4ccc(C(N)=O)s4)n4ccnc34)cc2)CC1` [Compound 127, (4-(4-Methylpiperazin-1-yl)phenyl)-[5-(2-carboxamido-5-thienyl)imidazo[1,2-a]pyrazin-8-yl]amine]: 101 to 500 nM and over 1000 nM.
As to `CN1CCN(c2ccc(Nc3ncc(-c4csc(C(N)=O)c4)n4ccnc34)cc2)CC1` [Compound 118], in experiment [1], the IC50 lay in the range of 101 to 500 nM. In experiment [2] (PBMC), the EC50 is over 1000 nM.
The like results for `NC(=O)c1ccc(-c2cnc(Nc3ccc(N4CCN(CCO)CC4)cc3)c3nccn23)cc1` [Compound 156] were, in that order, 501 to 1000 nM and over 1000 nM.
The matching figures for `Cc1oc(-c2cnc(Nc3ccc(N4CCOCC4)cc3)c3nccn23)cc1C(N)=O` [Compound 188]: over 1000 nM and over 1000 nM.
As to `CN1CCN(c2ccc(Nc3ncc(-c4ccc(C(N)=O)cc4)n4ccnc34)cc2)CC1` [Compound 143], the IC50 in experiment [1] is over 1000 nM. The same compound had an EC50 in experiment [2] (PBMC) of over 1000 nM.
For `CN(C)Cc1cc(Nc2ncc(-c3cn[nH]c3)n3ccnc23)ccc1N1CCOCC1` [Compound 218, (3-Dimethylaminomethyl-4-morpholin-4-yl-phenyl)-[5-(1H-pyrazol-4-yl)-imidazo[1,2-a]pyrazin-8-yl]-amine], the IC50 in experiment [1] was over 1000 nM. Moreover, the EC50 in experiment [2] (PBMC) was over 1000 nM.
`CN(C)c1ccc(CNC(=O)c2ccc(Nc3ncc(-c4cn[nH]c4)n4ccnc34)cc2)cc1` [Compound 89]: the IC50 in experiment [1] was over 1000 nM. The EC50 in experiment [2] (PBMC) was over 1000 nM.
Compound `O=C(NCCN1CCOCC1)c1ccc(Nc2ncc(-c3cn[nH]c3)n3ccnc23)cc1` [Compound 53] displayed an IC50 in experiment [1] of 101 to 500 nM. In experiment [2] (PBMC), this compound showed an EC50 of over 1000 nM.
The like results for `CN1CCN(c2ccc(Nc3ncc(-c4ccc(C(N)=O)cn4)n4ccnc34)cc2)CC1` [Compound 128] were, in that order, over 1000 nM and over 1000 nM.
The matching figures for `NS(=O)(=O)c1ccc(Nc2ncc(-c3cn[nH]c3)n3ccnc23)cc1` [Compound 36]: 101 to 500 nM and over 1000 nM.
The like results for `CN1CCN(c2ccc(Nc3ncc(-c4ccc(C(N)=O)c(Cl)c4)n4ccnc34)cc2)CC1` [Compound 124] were, in that order, over 1000 nM and 501 to 1000 nM.
`NC(=O)c1cnc(-c2cnc(Nc3ccc(N4CCOCC4)cc3)c3nccn23)s1` [Compound 158, 2-[8-(4-Morpholin-4-yl-phenylamino)-imidazo[1,2-a]pyrazin-5-yl]-thiazole-5-carboxylic acid amide] had an IC50 in experiment [1] of over 1000 nM. The compound also had a half-maximal effective concentration (EC50) in experiment [2] (PBMC) of 101 to 500 nM.
As for “4-(8-{4-[1-(2,2,2-Trifluoroethyl)piperidin-4-yl]phenylamino}imidazo[1,2-a]pyrazin-5-yl)thiophene-2-carboxylic acid amide [Compound 192]”, the IC50 in experiment [1] was in the range of 1 to 100 nM. In addition, the EC50 in experiment [2] (read-out: PBMC EC50) was over 1000 nM.

The IC50 is the concentration that gives 50% inhibition. By EC50 is commonly meant the concentration at which the effect is half-maximal.
